Data reported in patent US4889634A, “Dialysate solution containing hydroxypropyl-beta-cyclodextrin and method of using same” (priority 1988, dated 1989).

Test system: rats [Crl:CD(SD) BR strain]
Test: 14-day intravenous toxicity study in rats
Assay type: in vivo, rat
Conditions: for Number of deaths: 200 mg/kg i.v. every second day
Description: As part of the toxicological evaluation of HPBCD, control groups of animals were dosed with HPBCD alone.
Two groups (5/sex/group) of rats [Crl:CD(SD) BR strain] were used for this study. Control rats were given 200 mg of salt per kilogram of body weight intravenously administered in a saline control solution comprising 20% salt by weight in water. The saline control was administered every second day for 14 days (i.e. seven injections). The treated rats were given 200 mg of HPBCD per kilogram of body weight intravenously administered (200 mg/kg i.v. HPBCD) via a HPBCD solution containing 20% HPBCD by weight in water on the same injection schedule. […] At the end of the study the animals were necropsied, gross pathology was observed, histopathological samples were prepared and blood was drawn for clinical laboratory measurements.

[1] = female rats, 200 mg/kg i.v., 14 days
[2] = male rats, 200 mg/kg i.v., 14 days

How did the “Albumin/Globulin (Ratio)” value [1] turn out when hydroxypropyl-beta-cyclodextrin [HPBCD] was run?
The value was 0.9 ± 0.06.

What about the Triglycerides [1] of the same substance?
The Triglycerides was 35.0 ± 12.00 mg/dL.

What about the White blood cells [1] of the same substance?
The White blood cells was 7.4 ± 2.56 × 10^3 /mm^3.

What about the “Number of observations (antemortem)” value (female, 200 mg/kg i.v.) of the same substance?
The value was 0/5.

What about the Number of deaths (female, 14 days) of the same substance?
The Number of deaths was 0/5.

What about the Body weight gain (female, week 1, 200 mg/kg i.v.) of the same substance?
Its Body weight gain is 16.0 ± 5.00 Grams.

What about the Food intake (female, week 1, 200 mg/kg i.v.) of the same substance?
Its Food intake is 107.9 ± 10.59 Grams.

And the Body weight gain (female, week 2, 200 mg/kg i.v.)?
The Body weight gain was 18.0 ± 4.21 Grams.

What about the Food intake (female, week 2, 200 mg/kg i.v.) of the same substance?
The Food intake was 112.1 ± 12.47 Grams.

What about the “Adrenals weight to total body weight ratio” value (females) of the same substance?
The value was 0.0328 Weight Percent of Total Body W.

What about the “Kidney weight to total body weight ratio” value (females) of the same substance?
The value was 0.9937 Weight Percent of Total Body W.

And the “Body weight gains vs saline control” value (in words)?
Its value is “No difference”.

And the “Food intake vs saline control” value (in words)?
Its value is “No difference”.

What about the Gross pathology (in words) of the same substance?
Its Gross pathology is “No changes in gross pathology attributable to HPBCD treatment were observed”.

What about the “Abumin/Globulin (Ratio)” value [2] of the same substance?
The value was 0.9 ± 0.08.

What about the Alanine amino transferase [2] of the same substance?
The Alanine amino transferase was 24.0 ± 6.70 IU/L.

And the Albumin [2]?
The Albumin was 3.0 ± 0.08 G/dL.

What about the Alkaline phosphatase [2] of the same substance?
Its Alkaline phosphatase is 137.0 ± 26.20 IU/L.

And the Aspartate amino transferase [2]?
The Aspartate amino transferase was 124.0 ± 37.36 IU/L.

And the Basophils [2]?
Its Basophils is 0.00 ± 0.00 × 10^3 /mm^3.

And the Blood urea nitrogen [2]?
The Blood urea nitrogen was 11.2 ± 0.87 mg/dL.

What about the Calcium [2] of the same substance?
The Calcium was 9.8 ± 0.31 mg/dL.

What about the Chlorine [2] of the same substance?
The Chlorine was 106.0 ± 1.80 mmol/L.

And the Cholesterol [2]?
Its Cholesterol is 33.0 ± 7.10 mg/dL.

And the Creatinine [2]?
The Creatinine was 0.8 ± 0.04 mg/dL.

What about the Eosinophils [2] of the same substance?
The Eosinophils was 0.07 ± 0.05 × 10^3 /mm^3.

And the Globulin [2]?
Its Globulin is 3.3 ± 0.20 G/dL.

What about the “Glucose (blood)” value [2] of the same substance?
Its value is 94.1 ± 7.43 mg/dL.

And the Hematocrit [2]?
The Hematocrit was 48.6 ± 1.74%.

And the Hemoglobin [2]?
The Hemoglobin was 14.6 ± 0.51 G/DL.

And the Ionic phosphate [2]?
Its Ionic phosphate is 9.7 ± 0.34 mg/dL.

What about the Lymphocytes [2] of the same substance?
Its Lymphocytes is 7.13 ± 1.08 × 10^3 /mm^3.

And the Mean corpuscle [2]?
Its Mean corpuscle is 64.0 ± 2.20 fL.

And the Mean corpuscle hemoglobin [2]?
Its Mean corpuscle hemoglobin is 19.3 ± 0.60 pg.

What about the “Mean corpuscle hemoglobin concentrative” value [2] of the same substance?
The value was 30.0 ± 0.35%.

And the Monocytes [2]?
Its Monocytes is 0.08 ± 0.01 × 10^3 /mm^3.

What about the Normal blood cells [2] of the same substance?
The Normal blood cells was 0 ± 0.0 /100 white blood cells.

And the Platelet count [2]?
The Platelet count was 1020.0 ± 79.5 × 10^3 /mm^3.

And the Potassium [2]?
The Potassium was 4.7 ± 0.15 mmol/L.

And the Red blood cell [2]?
Its Red blood cell is 7.55 ± 0.17 × 10^6 /mm^3.

And the Segmented neutrophils [2]?
The Segmented neutrophils was 0.61 ± 0.44 × 10^3 /mm^3.

And the Sodium [2]?
The Sodium was 142 ± 1.5 mM.

What about the Total bilirubin [2] of the same substance?
The Total bilirubin was 0.2 ± 0.04 mg/dL.

What about the Total proteins [2] of the same substance?
Its Total proteins is 6.3 ± 0.18 G/dL.

What about the Triglycerides [2] of the same substance?
The Triglycerides was 57.0 ± 17.10 mg/dL.

And the White blood cells [2]?
The White blood cells was 7.9 ± 1.18 × 10^3 /mm^3.

What about the Number of deaths (male, 14 days) of the same substance?
The Number of deaths was 0/5.

What about the “Kidney weight to total body weight ratio” value (males) of the same substance?
Its value is 0.9022 Weight Percent of Total Body W.

What about the “Adrenals weight to total body weight ratio” value (rat, in vivo) of the same substance?
The value was 0.0212 Weight Percent of Total Body W.

What about the “Clinical laboratory values vs controls” value (rat, in vivo) of the same substance?
Its value is “no observed clinically significant differences”.

What about the “Epididymes weight to total body weight ratio” value (rat, in vivo) of the same substance?
Its value is 0.2635 Weight Percent of Total Body W.

What about the “Organ to body ratios between groups” value (rat, in vivo) of the same substance?
The value was “not different between the groups”.

What about the “Ovaries weight to total body weight ratio” value (rat, in vivo) of the same substance?
The value was 0.0574 Weight Percent of Total Body W.

And the “Prostate weight to total body weight ratio” value (rat, in vivo)?
Its value is 0.2091 Weight Percent of Total Body W.

What about the “Testes weight to total body weight ratio” value (rat, in vivo) of the same substance?
Its value is 1.0209 Weight Percent of Total Body W.

And the “Uterus weight to total body weight ratio” value (rat, in vivo)?
The value was 0.3278 Weight Percent of Total Body W.

What about the Alanine amino transferase (rat, in vivo, iv, 200 mg/kg) of the same substance?
The Alanine amino transferase was 21.0 ± 2.30 IU/L.

What about the Albumin (rat, in vivo, iv, 200 mg/kg) of the same substance?
Its Albumin is 3.1 ± 0.08 G/dL.

What about the Alkaline phosphatase (rat, in vivo, iv, 200 mg/kg) of the same substance?
The Alkaline phosphatase was 109.0 ± 16.20 IU/L.

And the Aspartate amino transferase (rat, in vivo, iv, 200 mg/kg)?
Its Aspartate amino transferase is 102.0 ± 162.00 IU/L.

And the Basophils (rat, in vivo, iv, 200 mg/kg)?
Its Basophils is 0.00 ± 0.00 × 10^3 /mm^3.

And the Blood urea nitrogen (rat, in vivo, iv, 200 mg/kg)?
Its Blood urea nitrogen is 13.2 ± 2.52 mg/dL.

And the Calcium (rat, in vivo, iv, 200 mg/kg)?
Its Calcium is 10.1 ± 0.82 mg/dL.

And the Chlorine (rat, in vivo, iv, 200 mg/kg)?
Its Chlorine is 107.0 ± 2.60.

What about the Cholesterol (rat, in vivo, iv, 200 mg/kg) of the same substance?
Its Cholesterol is 52.0 ± 18.60 mg/dL.

And the Creatinine (rat, in vivo, iv, 200 mg/kg)?
Its Creatinine is 0.8 ± 0.11 mg/dL.

What about the Eosinophils (rat, in vivo, iv, 200 mg/kg) of the same substance?
Its Eosinophils is 0.06 ± 0.04 × 10^3 /mm^3.

And the Globulin (rat, in vivo, iv, 200 mg/kg)?
Its Globulin is 3.4 ± 0.26 G/dL.

And the “Glucose (blood)” value (rat, in vivo, iv, 200 mg/kg)?
The value was 100.0 ± 14.07 mg/dL.

What about the Hematocrit (rat, in vivo, iv, 200 mg/kg) of the same substance?
The Hematocrit was 47.2 ± 5.59%.
